Results reported in publication PMC5421785, “Citrullination only infrequently impacts peptide binding to HLA class II MHC” (PLoS ONE, 2017).
Read-outs that look alike come from different tables or passages of the source. Values belong to the compound of their own block, whether it stands above or below them. Square brackets hold non-standard residues; d marks the D form. Ends that are not written are not given here. Peptide text beside a SMILES is read from it. Cit = NC(=O)NCCC[C@H](N)C(=O)O

Columns and labels:
HLA-DRB1*01:01 = molecular target: T1, HLA-DRB1*01:01 (Homo sapiens, UniProt P01903+P01911, A100R/D57E/F55L/F60I/F76Y/I96L/L162R/M171V/P40L/Q125E/R42F/V115G/Y59C); experiment: HLA class II peptide binding, inhibition of radiolabeled peptide binding to purified MHC; conditions: for DRB1*01:01 binding capacity, WT/cit ratio: ratio of WT IC50 to Cit IC50, >1 = citrullination increases binding
T1 construct: EBV transformed homozygous cell lines were used as sources of MHC molecules; endogenous in cells; host or cells: EBV transformed homozygous cell lines

HLA-DRB1*04:01 = molecular target: T2, HLA-DRB1*04:01 (Homo sapiens, UniProt P01903+P01911, A100K/A169T/F76Y/I96L/K127E/L162R/M171V/N62H/P40V/Q125Y/R42H/S133A/S149N/S66Y/V115G/V209L/W38E); experiment: as above; conditions: for DRB1*04:01 binding capacity, WT/cit ratio: ratio of WT IC50 to Cit IC50, >1 = citrullination increases binding
T2 construct: EBV transformed homozygous cell lines were used as sources of MHC molecules; endogenous in cells; host or cells: EBV transformed homozygous cell lines

[1] = citrullinated peptide as listed (X at Cit position), read-out: DRB1*01:01 binding capacity Cit peptide (IC50 nM)
[2] = citrullinated peptide as listed (X at Cit position), read-out: DRB1*04:01 binding capacity Cit peptide (IC50 nM)
[3] = wild-type (unmodified Arg) 15-mer peptide, purified HLA-DRB1*01:01, read-out: DRB1*01:01 binding capacity, WT peptide (IC50 nM)
[4] = wild-type (unmodified Arg) 15-mer peptide, purified HLA-DRB1*04:01, read-out: DRB1*04:01 binding capacity, WT peptide (IC50 nM)
[5] = citrullinated 15-mer peptide (X = citrulline), purified HLA-DRB1*01:01, read-out: DRB1*01:01 binding capacity, Cit peptide (IC50 nM)
[6] = citrullinated 15-mer peptide (X = citrulline), purified HLA-DRB1*04:01, read-out: DRB1*04:01 binding capacity, Cit peptide (IC50 nM)
[7] = citrullinated 15-mer (X), purified MHC, inhibition of radiolabeled peptide binding, dash = IC50 >40,000 nM, read-out: DRB1*01:01 binding capacity, Cit peptide (IC50 nM)
[8] = citrullinated 15-mer (X), purified MHC, inhibition of radiolabeled peptide binding, dash = IC50 >40,000 nM, read-out: DRB1*04:01 binding capacity, Cit peptide (IC50 nM)

IC50 (HLA-DRB1*01:01; [1]): 64 nM | IC50 (HLA-DRB1*04:01; [2]): 83 nM
Compound: CSCC[C@H](NC(=O)[C@H](Cc1ccc(O)cc1)NC(=O)[C@H](CCC(N)=O)NC(=O)[C@@H](N)CC(C)C)C(=O)N[C@@H](CCCNC(=N)N)C(=O)N[C@@H](C)C(=O)N[C@@H](CC(=O)O)C(=O)N[C@@H](CCC(N)=O)C(=O)N[C@@H](C)C(=O)N[C@@H](C)C(=O)NCC(=O)NCC(=O)N[C@@H](CC(C)C)C(=O)N[C@@H](CCCNC(N)=O)C(=O)N[C@@H](CCC(N)=O)C(=O)O [LQYMRADQAAGGLXQ] (H-LQYMRADQAAGGL[Cit]Q-OH)

IC50 (HLA-DRB1*01:01; [3]): > 40000 nM | IC50 (HLA-DRB1*04:01; [4]): > 40000 nM
Compound: PGFPGPRGPPGPQGA [Collagen 431 WT]

IC50 (HLA-DRB1*01:01; [5]): 13 nM | IC50 (HLA-DRB1*04:01; [6]): 10500 nM
Compound: CC[C@H](C)[C@H](NC(=O)CNC(=O)[C@H](CCCNC(N)=O)NC(=O)[C@H](CCC(N)=O)NC(=O)CNC(=O)[C@H](C)NC(=O)[C@@H](N)CC(C)C)C(=O)N[C@H](C(=O)NCC(=O)N[C@@H](CC(C)C)C(=O)N1CCC[C@H]1C(=O)NCC(=O)N[C@@H](CCC(N)=O)C(=O)N[C@@H](CCCNC(=N)N)C(=O)NCC(=O)O)C(C)C [LAGQXGIVGLPGQRG] (H-LAGQ[Cit]GIVGLPGQRG-OH)

IC50 (HLA-DRB1*01:01; [7]): 4690 nM | IC50 (HLA-DRB1*04:01; [8]): > 40000 nM
Compound: CC[C@H](C)[C@H](NC(=O)[C@H](CC(=O)O)NC(=O)[C@H](CCC(=O)O)NC(=O)[C@H](C)NC(=O)[C@H](CC(C)C)NC(=O)[C@H](CC(N)=O)NC(=O)[C@@H](N)CC(=O)O)C(=O)N[C@@H](CCSC)C(=O)N[C@@H](CCCNC(N)=O)C(=O)N[C@@H](CC(C)C)C(=O)N[C@@H](CCCNC(=N)N)C(=O)N[C@@H](CCC(=O)O)C(=O)N[C@@H](CCCCN)C(=O)N[C@@H](CC(C)C)C(=O)N[C@@H](CCC(N)=O)C(=O)O [DNLAEDIMXLREKLQ] (H-DNLAEDIM[Cit]LREKLQ-OH)

IC50 (HLA-DRB1*01:01; [5]): > 40000 nM | DRB1*01:01 binding capacity, WT/cit ratio (HLA-DRB1*01:01): 1.0 | IC50 (HLA-DRB1*04:01; [6]): > 40000 nM | DRB1*04:01 binding capacity, WT/cit ratio (HLA-DRB1*04:01): 1.0
Compound: CC(C)[C@H](NC(=O)[C@H](CC(=O)O)NC(=O)[C@H](CCCCN)NC(=O)[C@H](CC(=O)O)NC(=O)[C@H](CC(N)=O)NC(=O)[C@H](Cc1ccc(O)cc1)NC(=O)[C@H](CCCNC(N)=O)NC(=O)[C@H](CCC(N)=O)NC(=O)CNC(=O)[C@H](CC(=O)O)NC(=O)[C@@H](N)CCC(N)=O)C(=O)N[C@@H](Cc1c[nH]c2ccccc12)C(=O)N[C@@H](CCCCN)C(=O)N1CCC[C@H]1C(=O)N[C@@H](CCC(=O)O)C(=O)O [QDGQXYNDKDVWKPE] (H-QDGQ[Cit]YNDKDVWKPE-OH; N-terminus and C-terminus assumed)

IC50 (HLA-DRB1*01:01; read-out: DRB1*01:01 binding capacity, WT peptide (IC50 nM)): 7.9 nM | IC50 (HLA-DRB1*04:01; read-out: DRB1*04:01 binding capacity, WT peptide (IC50 nM)): 5060 nM
Compound: SAVRLRSSVPGVRLL [Vimentin 66 WT]

IC50 (HLA-DRB1*01:01; [5]): 1120 nM | IC50 (HLA-DRB1*04:01; [6]): > 40000 nM
Compound: C[C@H](NC(=O)CNC(=O)[C@H](C)NC(=O)[C@@H]1CCCN1C(=O)CNC(=O)[C@@H](NC(=O)[C@H](CCCNC(=N)N)NC(=O)CNC(=O)[C@H](CCCNC(=N)N)NC(=O)[C@@H](N)CCC(=O)O)[C@@H](C)O)C(=O)N[C@@H](C)C(=O)NCC(=O)N[C@@H](C)C(=O)N[C@@H](CCCNC(N)=O)C(=O)NCC(=O)O [ERGRTGPAGAAGAXG] (H-ERGRTGPAGAAGA[Cit]G-OH)

IC50 (HLA-DRB1*01:01; [1]): 54 nM | IC50 (HLA-DRB1*04:01; [2]): 17400 nM
Compound: CSCC[C@H](NC(=O)[C@H](CCC(N)=O)NC(=O)[C@@H](NC(=O)[C@H](CC(N)=O)NC(=O)[C@H](C)NC(=O)[C@@H](NC(=O)[C@H](CC(N)=O)NC(=O)[C@@H]1CCCN1C(=O)[C@H](C)NC(=O)[C@@H](N)CC(C)C)[C@@H](C)O)C(C)C)C(=O)N[C@H](C(=O)N[C@@H](Cc1ccccc1)C(=O)N[C@@H](CC(C)C)C(=O)N[C@@H](CCCNC(N)=O)C(=O)N[C@@H](CC(C)C)C(=O)O)[C@@H](C)O [LAPNTANVQMTFLXL] (H-LAPNTANVQMTFL[Cit]L-OH)

IC50 (HLA-DRB1*01:01; [7]): 102 nM | IC50 (HLA-DRB1*04:01; [8]): 1210 nM
Compound: CC[C@H](C)[C@H](NC(=O)[C@H](CCCCN)NC(=O)[C@H](CC(N)=O)NC(=O)[C@H](CCC(N)=O)NC(=O)[C@H](CCC(N)=O)NC(=O)[C@H](CCC(=O)O)NC(=O)[C@H](CC(C)C)NC(=O)[C@H](Cc1ccccc1)NC(=O)[C@H](CCCNC(N)=O)NC(=O)[C@@H](NC(=O)[C@H](CCCCN)NC(=O)[C@H](CC(=O)O)NC(=O)[C@@H](NC(=O)[C@H](Cc1ccc(O)cc1)NC(=O)[C@@H](N)CC(N)=O)[C@@H](C)CC)C(C)C)C(=O)O [NYIDKVXFLEQQNKI] (H-NYIDKV[Cit]FLEQQNKI-OH)

IC50 (HLA-DRB1*01:01; [5]): 3.6 nM | IC50 (HLA-DRB1*04:01; [6]): 2050 nM
Compound: CC[C@H](C)[C@H](NC(=O)CN)C(=O)N[C@H](C(=O)NCC(=O)N[C@@H](CC(C)C)C(=O)N1CCC[C@H]1C(=O)NCC(=O)N[C@@H](CCC(N)=O)C(=O)N[C@@H](CCCNC(N)=O)C(=O)NCC(=O)N[C@@H](CCC(=O)O)C(=O)N[C@@H](CCCNC(=N)N)C(=O)NCC(=O)N[C@@H](Cc1ccccc1)C(=O)N1CCC[C@H]1C(=O)O)C(C)C [GIVGLPGQXGERGFP] (H-GIVGLPGQ[Cit]GERGFP-OH)

IC50 (HLA-DRB1*01:01; [3]): 50 nM | IC50 (HLA-DRB1*04:01; [4]): > 40000 nM
Compound: SAFAGLGPREKGPDP [Collagen 1221 WT]

IC50 (HLA-DRB1*01:01; [5]): 23400 nM | IC50 (HLA-DRB1*04:01; [6]): > 40000 nM
Compound: N=C(N)NCCC[C@H](NC(=O)[C@H](CCC(=O)O)NC(=O)CNC(=O)[C@H](CCCNC(N)=O)NC(=O)[C@@H]1CCCN1C(=O)CN)C(=O)NCC(=O)N[C@@H](Cc1ccccc1)C(=O)N1CCC[C@H]1C(=O)NCC(=O)N[C@@H](CCC(=O)O)C(=O)N[C@@H](CCCNC(=N)N)C(=O)NCC(=O)N[C@@H](CO)C(=O)N1CCC[C@H]1C(=O)O [GPXGERGFPGERGSP] (H-GP[Cit]GERGFPGERGSP-OH)

IC50 (HLA-DRB1*01:01; [5]): 158 nM | IC50 (HLA-DRB1*04:01; [6]): 860 nM
Compound: CC(C)C[C@H](NC(=O)[C@H](CO)NC(=O)[C@H](CCC(N)=O)NC(=O)[C@@H](NC(=O)[C@H](CCC(N)=O)NC(=O)[C@H](CCCNC(N)=O)NC(=O)[C@H](CCCNC(=N)N)NC(=O)[C@H](Cc1ccc(O)cc1)NC(=O)[C@H](CCC(=O)O)NC(=O)[C@@H](NC(=O)[C@@H](N)CO)[C@@H](C)O)C(C)C)C(=O)N[C@H](C(=O)N[C@@H](CS)C(=O)N[C@@H](CCC(=O)O)C(=O)N[C@H](C(=O)O)C(C)C)[C@@H](C)O [STEYRXQVQSLTCEV] (H-STEYR[Cit]QVQSLTCEV-OH)

IC50 (HLA-DRB1*01:01; [5]): 9530 nM | IC50 (HLA-DRB1*04:01; [6]): 3220 nM
Compound: CSCC[C@H](NC(=O)[C@H](CCC(=O)O)NC(=O)[C@H](CCCNC(N)=O)NC(=O)[C@H](CCSC)NC(=O)[C@H](CCC(N)=O)NC(=O)[C@H](CCCNC(=N)N)NC(=O)[C@@H](N)CCC(=O)O)C(=O)N[C@@H](CCC(=O)O)C(=O)N[C@@H](CCC(=O)O)C(=O)N[C@@H](CC(N)=O)C(=O)N[C@@H](Cc1ccccc1)C(=O)N[C@@H](C)C(=O)N[C@H](C(=O)N[C@@H](CCC(=O)O)C(=O)N[C@@H](C)C(=O)O)C(C)C [ERQMXEMEENFAVEA] (H-ERQM[Cit]EMEENFAVEA-OH)

IC50 (HLA-DRB1*01:01; [5]): > 40000 nM | DRB1*01:01 binding capacity, WT/cit ratio (HLA-DRB1*01:01): 0.6 | IC50 (HLA-DRB1*04:01; [6]): > 40000 nM | DRB1*04:01 binding capacity, WT/cit ratio (HLA-DRB1*04:01): 1.0
Compound: C[C@H](NC(=O)CNC(=O)[C@H](C)NC(=O)[C@H](CCC(=O)O)NC(=O)CNC(=O)[C@H](CCCNC(N)=O)NC(=O)[C@H](CC(=O)O)NC(=O)CNC(=O)[C@H](CCC(N)=O)NC(=O)[C@H](CCCCN)NC(=O)CNC(=O)[C@@H](NC(=O)[C@@H]1CCCN1)[C@@H](C)O)C(=O)N[C@@H](CCC(N)=O)C(=O)NCC(=O)O [PTGKQGDXGEAGAQG] (H-PTGKQGD[Cit]GEAGAQG-OH; N-terminus and C-terminus assumed)
